# Target: T1, JAK2 (JH1domain-catalytic, Y1007F,Y1008F) kinase (Homo sapiens, UniProt O60674, Y1007F/Y1008F)
# T1 construct: JAK2 (JH1domain-catalytic, Y1007F,Y1008F) kinase was expressed as N-terminal fusion; made in house; host or cells: transiently transfected HEK293 cells
# Assay: JAK2 JH1 Domain Binding Assay
# Details: qPCR readout
# T1 sequence (O60674 849-1124 Y1007F/Y1008F limits assumed): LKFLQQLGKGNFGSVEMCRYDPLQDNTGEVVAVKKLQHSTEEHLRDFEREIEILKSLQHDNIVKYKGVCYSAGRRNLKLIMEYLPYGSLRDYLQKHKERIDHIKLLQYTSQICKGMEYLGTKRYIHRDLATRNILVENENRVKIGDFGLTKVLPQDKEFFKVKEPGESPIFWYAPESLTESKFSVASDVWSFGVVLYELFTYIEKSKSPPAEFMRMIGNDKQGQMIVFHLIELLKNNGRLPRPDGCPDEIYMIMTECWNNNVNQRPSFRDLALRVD
row,Kd [nM],SMILES
1,< 10,"Cn1c(Nc2cc(C3CC3)cn(CCO)c2=O)nc2ncc(Oc3cnn4ccncc34)c(Cl)c21 [Example I-65, 3-((7-chloro-1-methyl-6-(pyrazolo[1,5-a]pyrazin-3-yloxy)-1H-imidazo[4,5-b]pyridin-2-yl)amino)-5-cyclopropyl-1-(2-hydroxyethyl)pyridin-2(1H)-one]"
2,< 10,"Cn1c(Nc2cc(C(C)(C)C)n([C@H]3CCO[C@@H]3CO)n2)nc2ncc(Oc3cnn4ccncc34)c(Cl)c21 [Example I-66, ((2S,3S)-3-(5-(tert-butyl)-3-((7-chloro-1-methyl-6-(pyrazolo[1,5-a]pyrazin-3-yloxy)-1H-imidazo[4,5-b]pyridin-2-yl)amino)-1H-pyrazol-1-yl)tetrahydrofuran-2-yl)methanol]"
3,< 10,"COc1c(Oc2cnn3ccncc23)cnc2nc(Nc3cc(C4CC4)cn(C4CCOCC4)c3=O)n(C)c12 [Example I-67, 5-cyclopropyl-3-((7-methoxy-1-methyl-6-(pyrazolo[1,5-a]pyrazin-3-yloxy)-1H-imidazo[4,5-b]pyridin-2-yl)amino)-1-(tetrahydro-2H-pyran-4-yl)pyridin-2(1H)-one]"
4,< 10,"Cn1c(Nc2cc(C3CC3)cn(C3CCOCC3)c2=O)nc2ncc(Oc3cnn4ccncc34)c(Cl)c21 [Example I-68, 3-((7-chloro-1-methyl-6-(pyrazolo[1,5-a]pyrazin-3-yloxy)-1H-imidazo[4,5-b]pyridin-2-yl)amino)-5-cyclopropyl-1-(tetrahydro-2H-pyran-4-yl)pyridin-2(1H)-one]"
5,< 10,"Cn1c(Nc2cc(C3CC3)cn([C@H]3C[C@@H](O)C3)c2=O)nc2ncc(Oc3cnn4ccncc34)c(Cl)c21 [Example I-70, 3-((7-chloro-1-methyl-6-(pyrazolo[1,5-a]pyrazin-3-yloxy)-1H-imidazo[4,5-b]pyridin-2-yl)amino)-5-cyclopropyl-1-((1s,3s)-3-hydroxycyclobutyl)pyridin-2(1H)-one]"
6,< 10,"COc1c(Oc2cnn3ccncc23)cnc2nc(Nc3cc(C4CC4)cn([C@H]4C[C@@H](O)C4)c3=O)n(C)c12 [Example I-74, cis-5-cyclopropyl-1-(3-hydroxycyclobutyl)-3-((7-methoxy-1-methyl-6-(pyrazolo[1,5-a]pyrazin-3-yloxy)-1H-imidazo[4,5-b]pyridin-2-yl)amino)pyridin-2(1H)-one]"
7,< 10,"COc1c(Oc2cnn3ccncc23)cnc2nc(Nc3cc(C4CC4)cn([C@H]4C[C@H](O)C4)c3=O)n(C)c12 [Example I-75, trans-5-cyclopropyl-1-(3-hydroxycyclobutyl)-3-((7-methoxy-1-methyl-6-(pyrazolo[1,5-a]pyrazin-3-yloxy)-1H-imidazo[4,5-b]pyridin-2-yl)amino)pyridin-2(1H)-one]"
8,< 10,"Cn1c(Nc2cc(C3CC3)cn([C@H]3C[C@H](C#N)C3)c2=O)nc2ncc(Oc3cnn4ccncc34)c(Cl)c21 [Example I-77, trans-3-(3-((7-chloro-1-methyl-6-(pyrazolo[1,5-a]pyrazin-3-yloxy)-1H-imidazo[4,5-b]pyridin-2-yl)amino)-5-cyclopropyl-2-oxopyridin-1(2H)-yl)cyclobutane-1-carbonitrile]"
9,< 10,"Cn1c(Nc2cc(C3CC3)cn(CCO)c2=O)nc2ncc(Oc3cnn4ccccc34)c(Cl)c21 [Example I-78, 3-((7-chloro-1-methyl-6-(pyrazolo[1,5-a]pyridin-3-yloxy)-1H-imidazo[4,5-b]pyridin-2-yl)amino)-5-cyclopropyl-1-(2-hydroxyethyl)pyridin-2(1H)-one]"
10,< 10,"Cn1c(Nc2cc(C3CC3)cn([C@H]3C[C@H](O)C3)c2=O)nc2ncc(Oc3cnn4ccccc34)c(Cl)c21 [Example I-79, trans-3-((7-chloro-1-methyl-6-(pyrazolo[1,5-a]pyridin-3-yloxy)-1H-imidazo[4,5-b]pyridin-2-yl)amino)-5-cyclopropyl-1-(3-hydroxycyclobutyl)pyridin-2(1H)-one]"
11,< 10,"Cn1c(Nc2cc(C3CC3)cn([C@H]3C[C@@H](C#N)C3)c2=O)nc2ncc(Oc3cnn4ccncc34)c(Cl)c21 [Example I-80, cis-3-(3-((7-chloro-1-methyl-6-(pyrazolo[1,5-a]pyrazin-3-yloxy)-1H-imidazo[4,5-b]pyridin-2-yl)amino)-5-cyclopropyl-2-oxopyridin-1(2H)-yl)cyclobutane-1-carbonitrile]"
12,10 to 50,"Cn1c(Nc2cc(C(C)(C)C)n([C@H]3CCO[C@@H]3CO)n2)nc2ncc(Oc3cnc4ccnn4c3)c(Cl)c21 [Example I-82, ((2S,3S)-3-(5-(tert-butyl)-3-((7-chloro-1-methyl-6-(pyrazolo[1,5-a]pyrimidin-6-yloxy)-1H-imidazo[4,5-b]pyridin-2-yl)amino)-1H-pyrazol-1-yl)tetrahydrofuran-2-yl)methanol]"
13,10 to 50,"Cn1c(Nc2cc(C(C)(C)C)n([C@H]3CCO[C@@H]3CO)n2)nc2ncc(Oc3cnn4ccnc4c3)c(Cl)c21 [Example I-83, ((2S,3S)-3-(5-(tert-butyl)-3-((7-chloro-6-(imidazo[1,2-b]pyridazin-7-yloxy)-1-methyl-1H-imidazo[4,5-b]pyridin-2-yl)amino)-1H-pyrazol-1-yl)tetrahydrofuran-2-yl)methanol]"
14,< 10,"Cn1cc(C2CC2)cc(Nc2nc3ncc(Oc4cnc5cnc(C6CC6)n5c4)c(Cl)c3n2C)c1=O [Example I-84, 3-((7-chloro-6-((6-cyclopropylimidazo[1,5-a]pyrimidin-3-yl)oxy)-1-methyl-1H-imidazo[4,5-b]pyridin-2-yl)amino)-5-cyclopropyl-1-methylpyridin-2(1H)-one]"
15,< 10,"Cn1c(Nc2cc(C3CC3)cn(C3CC4(COC4)C3)c2=O)nc2ncc(Oc3cnn4ccncc34)c(Cl)c21 [Example I-85, 3-((7-chloro-1-methyl-6-(pyrazolo[1,5-a]pyrazin-3-yloxy)-1H-imidazo[4,5-b]pyridin-2-yl)amino)-5-cyclopropyl-1-(2-oxaspiro[3.3]heptan-6-yl)pyridin-2(1H)-one]"
16,< 10,"Cn1c(Nc2cc(C(C)(C)C)n(C3COC3)n2)nc2ncc(Oc3cnn4ccncc34)c(Cl)c21 [Example I-86, N-(5-(tert-butyl)-1-(oxetan-3-yl)-1H-pyrazol-3-yl)-7-chloro-1-methyl-6-(pyrazolo[1,5-a]pyrazin-3-yloxy)-1H-imidazo[4,5-b]pyridin-2-amine]"
17,10 to 50,"Cn1c(Nc2cc(C(C)(C)C)n([C@H]3CCO[C@@H]3CO)n2)nc2ncc(Oc3cnc4cnc(C5CC5)n4c3)c(Cl)c21 [Example I-87, ((2S,3S)-3-(5-(tert-butyl)-3-((7-chloro-6-((6-cyclopropylimidazo[1,5-a]pyrimidin-3-yl)oxy)-1-methyl-1H-imidazo[4,5-b]pyridin-2-yl)amino)-1H-pyrazol-1-yl)tetrahydrofuran-2-yl)methanol]"
18,10 to 50,"Cn1c(Nc2cc(C(C)(C)C)n([C@H]3C[C@H](O)C3)n2)nc2ncc(Oc3cnc4cnc(C5CC5)n4c3)c(Cl)c21 [Example I-88, trans-3-(5-(tert-butyl)-3-((7-chloro-6-((6-cyclopropylimidazo[1,5-a]pyrimidin-3-yl)oxy)-1-methyl-1H-imidazo[4,5-b]pyridin-2-yl)amino)-1H-pyrazol-1-yl)cyclobutan-1-ol]"
19,< 10,"Cn1c(Nc2cc(C(F)(F)F)cn(C3CC4(COC4)C3)c2=O)nc2ncc(Oc3cnn4ccncc34)c(Cl)c21 [Example I-90, 3-((7-chloro-1-methyl-6-(pyrazolo[1,5-a]pyrazin-3-yloxy)-1H-imidazo[4,5-b]pyridin-2-yl)amino)-1-(2-oxaspiro[3.3]heptan-6-yl)-5-(trifluoromethyl)pyridin-2(1H)-one]"
20,< 10,"Cn1c(Nc2cc(C(F)(F)F)cn(CCCN3CCOCC3)c2=O)nc2ncc(Oc3cnn4ccncc34)c(Cl)c21 [Example I-91, 3-((7-chloro-1-methyl-6-(pyrazolo[1,5-a]pyrazin-3-yloxy)-1H-imidazo[4,5-b]pyridin-2-yl)amino)-1-(3-morpholinopropyl)-5-(trifluoromethyl)pyridin-2(1H)-one]"
21,< 10,"Cn1cc(C2CC2)cc(Nc2nc3ncc(Oc4cnc5[nH]ncc5c4)c(Cl)c3n2C)c1=O [Example I-92, 3-((6-((1H-pyrazolo[3,4-b]pyridin-5-yl)oxy)-7-chloro-1-methyl-1H-imidazo[4,5-b]pyridin-2-yl)amino)-5-cyclopropyl-1-methylpyridin-2(1H)-one]"
22,< 10,"CC(=O)N1CC(n2nc(Nc3nc4ncc(Oc5cnn6ccncc56)c(Cl)c4n3C)cc2C(C)(C)C)C1 [Example I-94, 1-(3-(5-(tert-butyl)-3-((7-chloro-1-methyl-6-(pyrazolo[1,5-a]pyrazin-3-yloxy)-1H-imidazo[4,5-b]pyridin-2-yl)amino)-1H-pyrazol-1-yl)azetidin-1-yl)ethan-1-one]"
23,10 to 50,"COc1c(Oc2cnn3ccncc23)cnc2nc(Nc3cc(C4CC4)cn([C@H]4C[C@H](C#N)C4)c3=O)n(C)c12 [Example I-96, trans-3-(5-cyclopropyl-3-((7-methoxy-1-methyl-6-(pyrazolo[1,5-a]pyrazin-3-yloxy)-1H-imidazo[4,5-b]pyridin-2-yl)amino)-2-oxopyridin-1(2H)-yl)cyclobutane-1-carbonitrile]"
24,< 10,"Cn1c(Nc2cc(C3CC3)cn(CCCN3CCOCC3)c2=O)nc2ncc(Oc3cnn4ccncc34)c(Cl)c21 [Example I-97, 3-((7-chloro-1-methyl-6-(pyrazolo[1,5-a]pyrazin-3-yloxy)-1H-imidazo[4,5-b]pyridin-2-yl)amino)-5-cyclopropyl-1-(3-morpholinopropyl)pyridin-2(1H)-one]"
25,10 to 50,"COc1c(Oc2cnn3ccccc23)cnc2nc(Nc3cc(C4CC4)cn(CCO)c3=O)n(C)c12 [Example I-100, 5-cyclopropyl-1-(2-hydroxyethyl)-3-((7-methoxy-1-methyl-6-(pyrazolo[1,5-a]pyridin-3-yloxy)-1H-imidazo[4,5-b]pyridin-2-yl)amino)pyridin-2(1H)-one]"
26,< 10,"CN1CCN(CCn2cc(C3CC3)cc(Nc3nc4ncc(Oc5cnn6ccccc56)c(Cl)c4n3C)c2=O)CC1 [Example I-102, 3-((7-chloro-1-methyl-6-(pyrazolo[1,5-a]pyridin-3-yloxy)-1H-imidazo[4,5-b]pyridin-2-yl)amino)-5-cyclopropyl-1-(2-(4-methylpiperazin-1-yl)ethyl)pyridin-2(1H)-one]"

# — patent US12043632B2, “6-heteroaryloxy benzimidazoles and azabenzimidazoles as JAK2 inhibitors” (Ajax Therapeutics, Inc., priority 2020, dated 2024)
